{"source": "patent US9567318B2", "about": "“Substituted pyrimidine compounds and uses thereof” (Memorial Sloan-Kettering Cancer Center, priority 2009, dated 2017)", "key": {"[1]": {"test_system": "STAT1 in MDA-MB-468 cells", "experiment": "Activated STAT1 DNA binding assay (ELISA)", "format": "cell-based, human", "conditions": "IFNγ 100 ng/ml", "method": "FIG. 19. YK5 enhances the nuclear content of IFNγ activated STAT1 and potentiates its binding to DNA. MDAMB-468 cells were treated with IFNγ (100 ng/ml) or co-treated with IFNγ (100 ng/ml) and YK5 (10 μM). (a) Activated STAT1 (pTyr701), was determined by immunofluorescent microscopy with a secondary antibody conjugated with FITC. Nuclear staining was performed with DAPI. (b) Activated STAT1 binding to STAT consensus binding site (5′-[…]-3′) was determined by an ELISA-based assay. Activated STAT1, contained in lysates from untreated (white bar), treated with YK5 (light grey bar), IFNγ (dark grey bars) or the combination of IFNγ and YK5 (black bars) cells, and bound to the oligonucleotide, was detected through use of an anti-STAT1 antibody. Assays were performed in the absence or presence of 20 pmol of competitor oligonucleotide that contains either a wild-type or a mutated STAT consensus binding site using IFNγ-treated cells (dark grey bars). […] Results are expressed as mean absorbance values (OD450 nm) with SEM.\nActivated STAT1 DNA binding assay. […] After HRP substrate addition, absorbance was read at 450 nm with a reference wavelength of 655 nm (Synergy4, Biotek, Winooski, Vt.). In this assay the absorbance is directly proportional to the quantity of DNA-bound transcription factor present in the sample. […] Results were expressed as mean absorbance values with SEM. […]"}, "[2]": {"test_system": "Kasumi-1 acute myeloid leukemia cells", "experiment": "Growth Inhibition Assay (Alamar blue), Kasumi-1", "format": "cell-based, human", "conditions": "Homo sapiens, Kasumi 1, 72 h, Kasumi-1 cells", "procedure,_shortened": "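Adherent SKBr3 cells seeded at 8,000/well and suspension Kasumi-1 cells at 20,000/well, rested 24 h at 37 °C, then treated in triplicate for 72 h. Viability read by Alamar blue (440 µM) fluorescence (ex 530/em 580 nm) after 6 h; growth inhibition calculated versus untreated controls, corrected for the time-zero cell population.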"}, "recombinant human Hsp70": {"target": "T1, recombinant human Hsp70 (Homo sapiens, UniProt P0DMV8)", "T1 construct": "purchased Stressgen", "T1 sequence (P0DMV8 whole entry)": "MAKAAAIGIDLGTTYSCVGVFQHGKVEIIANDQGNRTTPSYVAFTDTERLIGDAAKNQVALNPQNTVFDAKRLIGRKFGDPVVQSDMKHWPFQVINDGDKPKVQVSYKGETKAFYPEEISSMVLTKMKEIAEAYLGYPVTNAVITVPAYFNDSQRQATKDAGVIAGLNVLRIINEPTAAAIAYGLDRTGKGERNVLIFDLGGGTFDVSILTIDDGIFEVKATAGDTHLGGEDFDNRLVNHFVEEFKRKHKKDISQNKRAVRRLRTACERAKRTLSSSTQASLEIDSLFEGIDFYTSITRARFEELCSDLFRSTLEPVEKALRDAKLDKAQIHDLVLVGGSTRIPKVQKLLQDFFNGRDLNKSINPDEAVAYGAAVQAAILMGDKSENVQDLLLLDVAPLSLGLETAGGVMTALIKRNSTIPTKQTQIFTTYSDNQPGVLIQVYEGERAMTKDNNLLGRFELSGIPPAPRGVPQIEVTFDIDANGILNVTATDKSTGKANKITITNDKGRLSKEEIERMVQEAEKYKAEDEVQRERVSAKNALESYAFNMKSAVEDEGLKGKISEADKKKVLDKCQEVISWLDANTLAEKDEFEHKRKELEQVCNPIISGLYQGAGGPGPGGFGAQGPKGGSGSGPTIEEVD", "experiment": "Hsp70 competition assay using YK55 beads, recombinant protein", "format": "binding", "conditions": "compared with MRC-5 Hsp70s", "method": "FIG. 14. YK5 has a higher affinity for tumor Hsp70s and selectively kills cancer cells. (a-c) Cells were treated with the indicated concentrations of inhibitors for the times presented, and metabolically viable cells by Alamar blue uptake as described in Methods (a). Molecular markers of apoptosis (PARP and caspase-3 cleavage) were analyzed in cells treated for 24 h with indicated concentrations of inhibitors, by western blotting (b, c). Morphology of cells treated for 24 h with vehicle or the indicated inhibitors was analyzed by light microscopy (c). (d) Extracts (500 μg) were incubated overnight with beads containing D-biotin (75 μM) or the indicated concentrations of YK55 added to 50 μl streptavidin beads. HS=heat shocked. (e) SKBr3 (200 μg) and MRC-5 (400 μg) extracts and recombinant human Hsp70 (2 μg) were incubated for 3 h with the indicated concentrations with YK5, followed by precipitation of Hsp70 complexes on YK55-beads (50 μM YK55 added to 50 μl streptavidin beads). Data obtained from three independent experiments were graphed (right). Points, mean; bars, s.d.\nIn a second experiment, the ability of soluble YK5 to compete YK55-binding to normal and cancer cell Hsp70 species were tested (FIG. 14e). […] Interaction of YK5 was even weaker with recombinant human Hsp70 (FIG. 14e).\nHsp70 Competition Assay Using the YK55 Beads. […]"}}, "data": [{"compound": "C=CC(=O)Nc1cc(N)nc(Sc2c(OC)nc(N3CCN(C)CC3)nc2OC)n1", "note": "[YK5, N-(6-amino-2-(4,6-dimethoxy-2-(4-methylpiperazin-1-yl)pyrimidin-5-ylthio)pyrimidin-4-yl)acrylamide]", "values": [{"measurement": "DNA-binding efficacy of activated STAT1", "setting": "[1]", "result": "increased its DNA-binding efficacy"}, {"measurement": "IC50", "setting": "[2]", "result": "0.4 to 0.6", "unit": "µM"}, {"measurement": "interaction with recombinant human Hsp70", "setting": "recombinant human Hsp70", "result": "even weaker"}]}]}
